Data from US7470708B2, “Acidic quinoline derivatives and their use for the prevention and/or treatment of hyperglycaemia-related pathologies” (Merck Patent Gesellschaft mit Beschraenkter Haftung, priority 2003, dated 2008).

Legend:
insulin secretion = assay: Insulin secretion test; type: cell-based; conditions: concentration of test compound 10^−5 M
Text: According to the method described in Endocrinology, 1992 vol. 130 (1) pp. 167-178
• C corresponds to the concentration of test compound according to the invention INS. SEC. corresponds to the percentage of insulin secretion.

N0STZ rats = assay: Antidiabetic activity in N0STZ rats (non-insulin-dependent diabetes induced by neonatal steptozotocin); type: in vivo; conditions: N0 STZ rat, oral, percentage change in glycaemia on D4 relative to D0
Experimental: Study of the Antidiabetic Activity in N0STZ Rats
The antidiabetic activity of the compounds of the formula (I) via the oral route, on an experimental model of non-insulin-dependent diabetes induced in rats by means of steptozotocin, was determined as follows.
The model of non-insulin-dependent diabetes is obtained in the rats by means of a neonatal injection (on the day of birth) of steptozotocin.
The diabetic rats used are eight weeks old. The animals are housed, from the day of birth to the day of the experiment, in an animal house at a regulated temperature of 21 to 22° C. and subjected to a fixed cycle of light (from 7 a.m. to 7 p.m.) and darkness (from 7p.m. to 7 a.m.). Their food consisted of a maintenance diet, and water and food were given “ad libitum”, with the exception of fasting two hours before the tests, during which period the food is removed (post-absorptive state).
The rats are treated orally for one (D1) or four (D4) days with the test product. Two hours after the final administration of the product and 30 minutes after anaesthetizing the animals with pentobarbital sodium (Nembutal®), a 300 μl blood sample is taken from the end of the tail.
By way of example, the results obtained are collated in the table below.

| Structure (SMILES) | melting point [°C] | INS. SEC. (percentage of insulin secretion) (insulin secretion) [%] | Percentage decrease in glycaemia at 200 mg/kg (N0STZ rats) [%] |
| --- | --- | --- | --- |
| O=C(O)c1cc(OCc2nc3ccccc3s2)c2cc(F)ccc2n1 [Compound 3, 4-(Benzothiazol-2-ylmethoxy)-6-fluoroquinoline-2-carboxylic acid] | > 250 | – | – |
| COc1ccc2nc(C(=O)[O-])cc(OCc3ccc(Br)cc3F)c2c1.[Na+] [Compound 4, 4-(4-Bromo-2-fluorobenzyloxy)-6-methoxyquinoline-2-carboxylic acid, sodium salt] | > 250 | – | – |
| COc1ccc(C(=O)COc2cc(C(=O)O)nc3ccc(F)cc23)cc1OC [Compound 63, 4-[2-(3,4-dimethoxyphenyl)-2-oxoethoxy]-6-fluoroquinoline-2-carboxylic acid] | – | 192 | – |
| COC(=O)c1cc(OCCCCl)c2cc(F)ccc2n1 [Compound 64, methyl 4-(3-chloropropoxy)-6-fluoroquinoline-2-carboxylate] | – | 179 | – |
| COC(=O)c1cc(OCC(C)CCl)c2cc(F)ccc2n1 (centres unmarked) [Compound 65, methyl 4-(3-chloro-2-methylpropoxy)-6-fluoroquinoline-2-carboxylate] | – | 161 | – |

Continued, in another order:

| melting point [°C] | Structure (SMILES) | INS. SEC. (percentage of insulin secretion) (insulin secretion) [%] | Percentage decrease in glycaemia at 200 mg/kg (N0STZ rats) [%] |
| --- | --- | --- | --- |
| 205 | CCOc1cc(C(=O)O)nc2ccc(F)cc12 [Compound 1, 4-Ethoxy-6-fluoroquinoline-2-carboxylic acid] | 172 | −27 |
| > 250 | O=C(O)c1cc(OCc2ccc(Br)cc2F)c2cc(F)ccc2n1 [Compound 2, 4-(4-Bromo-2-fluorobenzyloxy)-6-fluoroquinoline-2-carboxylic acid] | – | – |
| > 250 | O=C(O)c1cc(OC/C=C/COc2cc(C(=O)O)nc3ccc(F)cc23)c2cc(F)ccc2n1 [Compound 5, 4-({(E)-4-[(2-Carboxy-6-fluoro-4-quinolinyl)oxy]-2-butenyl}oxy)-6-fluoro-2-quinolinecarboxylic acid] | – | −17 |
| > 250 | CC(C)=CCOc1cc(C(=O)O)nc2ccc(F)cc12 [Compound 6, 6-Fluoro-4-(3-methylbut-2-enyloxy)quinoline-2-carboxylic acid] | – | −10 |
| > 250 | N#Cc1ccccc1-c1ccc(COc2cc(C(=O)O)nc3ccc(F)cc23)cc1 [Compound 7, 4-(2′-Cyanobiphenyl-4-ylmethoxy)-6-fluoroquinoline-2-carboxylic acid] | – | – |
